Source: US10499637B2, “Compositions comprising flavonoid-containing extracts from plants of the genus citrus and/or isolated citrus flavonoids and specific cationic surface active agents, and said composition for use as an agent for treating infestations with head lice” (MEDA AB, priority 2009, dated 2019)

Experiments:
[1] = test system: Head lice, Pediculus humanus capitis; experiment: Test 1: in-vitro assay with head lice, test substances in basic solution; conditions: for Vitality of the lice after 120 min: dead / Vitality of the lice after 360 min: dead: number of dead lice of 5 incubated; for Vitality of the lice after 120 min: dead / Vitality of the lice after 360 min: dead / Vitality of the lice after 30 min: immobile / Vitality of the lice after 120 min: mobile / Vitality of the lice after 360 min: mobile: basic solution; for Vitality of the lice after 30 min: immobile: number of immobile lice of 5 incubated; for Vitality of the lice after 30 min: mobile / Vitality of the lice after 120 min: mobile / Vitality of the lice after 360 min: mobile: number of mobile lice of 5 incubated; for Vitality of the lice after 30 min: mobile: basic solution 10% lauryl glucoside, 5% glycerin, pH 6.0
Procedure: Head lice, Pediculus humanus capitis, were obtained by combing infested children from whom assent and consent from the parents had been obtained.
Lice were used for the experiments mostly immediately, but not later than 4 hours after removing from the head. Adult lice, mixed sexes, were fully immersed in the test solutions for 3 to 15 minutes, then thoroughly rinsed with plenty of water to remove any residuals of the test medication. Three replicates of 5 or 10 lice each, plus one control for each batch of lice, were used for any test formulation. The lice were transferred to dry filter paper and kept for observation for up to 24 hours.
The solutions were formulated by addition of the tests substances listed in Table 1 to a basic solution consisting of 10% lauryl glucoside, 5% glycerin and purified water ad 100% and adjusted to pH 6.0 with citric acid. In each test solution 5 lice were incubated, in the controls consisting of the basic solution without any additions 10 lice were incubated.
“Dead” means that neither movements of the legs nor of the intestine were observed.
At 30 min only mobile or immobile lice were observed, whereas dead lice were observed only at 120 and 360 min.

Aedes aegypti larvae = experiment: Naringin against Aedes aegypti larvae, experiments in applicant's laboratory; conditions: thousand fold higher concentration of naringin than in the literature, without acetonitrile in the assay
Description: A putative insecticidal activity of naringin is of interest in the present context.

Structure (SMILES)	Vitality of the lice after 120 min: dead [1]	Vitality of the lice after 360 min: dead [1]	Vitality of the lice after 30 min: immobile [1]	Vitality of the lice after 30 min: mobile [1]	Vitality of the lice after 120 min: mobile [1]	Vitality of the lice after 360 min: mobile [1]	killing of Aedes aegypti larvae (Aedes aegypti larvae)
CCCCCCCCCCCCCCCCCCCCCC[N+](C)(C)C.[Cl-] [2.0% behentrim., behentrimonium chloride]	0	0	0	5	5	5	–
COc1ccc([C@@H]2CC(=O)c3c(O)cc(O)cc3O2)cc1O [1.0% hesperetin, (S)-2,3-dihydro-5,7-dihydroxy-2-(3-hydroxy-4-methoxyphenyl)-4H-1-benzopyran-4-one]	0	0	0	5	5	5	–
O=C1C[C@@H](c2ccc(O)cc2)Oc2cc(O)cc(O)c21 [1.0% naringenin, (S)-2,3-dihydro-5,7-dihydroxy-2-(4-hydroxyphenyl)-4H-1-benzopyran-4-one]	0	0	0	5	5	5	–
COc1ccc([C@@H]2CC(=O)c3c(O)cc(O[C@@H]4O[C@H](CO[C@@H]5O[C@@H](C)[C@H](O)[C@@H](O)[C@H]5O)[C@@H](O)[C@H](O)[C@H]4O)cc3O2)cc1O [1.0% hesperidin, (2S)-7-((6-O-(6-desoxy-α-L-mannopyranosyl)-β-D-glucopyranosyl)oxy)-2,3-dihydro-5-hydroxy-2-(3-hydroxy-4-methoxyphenyl)-4H-1-benzopyran-4-one]	0	0	0	5	5	5	–
C[C@@H]1O[C@@H](O[C@H]2[C@H](Oc3cc(O)c4c(c3)O[C@H](c3ccc(O)cc3)CC4=O)O[C@H](CO)[C@@H](O)[C@@H]2O)[C@H](O)[C@H](O)[C@H]1O [1.0% naringin, 7-[[2-O-(6-desoxy-α-L-mannopyra-nosyl)-β-D-glucopyranosyl]oxy]-2,3-dihydro-5-hydroxy-2-(4-hydroxy-phenyl)-4H-1-benzopyran-4-one]	0	0	0	5	5	5	did not kill
CCCCCCCCCCCCCCCC(=O)NCCC[N+](C)(C)C.[Cl-] [2.0% palmitamidopr., palmitamidopropyltrimonium chloride]	0	1	0	5	5	4	–
